Source: US7553969B1, “Substituted phenethylamine derivatives” (Chugai Seiyaku Kabushiki Kaisha, priority 1999, dated 2009)
Where a SMILES comes first, the peptide text is derived from it. [ ]: non-standard residue; d: D form. ξ: configuration not given here. NMeTyr(3-tBu) = CN[C@@H](Cc1ccc(O)c(C(C)(C)C)c1)C(=O)O; ξNMeTyr(3-tBu) = CNC(Cc1ccc(O)c(C(C)(C)C)c1)C(=O)O; NMePhe(4-F) = CN[C@@H](Cc1ccc(F)cc1)C(=O)O; Phe(4-F) = N[C@@H](Cc1ccc(F)cc1)C(=O)O; ξPhe(4-CN) = N#Cc1ccc(CC(N)C(=O)O)cc1; NMe2Thi = CN[C@@H](Cc1cccs1)C(=O)O; NMeGly(cPr) = CN[C@H](C(=O)O)C1CC1; NMeChg = CN[C@H](C(=O)O)C1CCCCC1; NMeF = CN[C@@H](Cc1ccccc1)C(=O)O; NMePhg = CN[C@H](C(=O)O)c1ccccc1; ξW = NC(Cc1c[nH]c2ccccc12)C(=O)O; NMeV = CN[C@H](C(=O)O)C(C)C

Assays:
motilin receptor = target: T1, motilin receptor (Oryctolagus cuniculus, UniProt G1T803); test: Motilin receptor binding test (125I motilin, rabbit duodenum protein sample); settings: 125I motilin 25 pM, concentration reducing specific binding by 50%
T1 construct: homogenized in 50 mM Tris buffer to prepare a protein sample; from tissue; host or cells: rabbit duodenum homogenate (mucous membrane separated)
T1 sequence (G1T803 1-400): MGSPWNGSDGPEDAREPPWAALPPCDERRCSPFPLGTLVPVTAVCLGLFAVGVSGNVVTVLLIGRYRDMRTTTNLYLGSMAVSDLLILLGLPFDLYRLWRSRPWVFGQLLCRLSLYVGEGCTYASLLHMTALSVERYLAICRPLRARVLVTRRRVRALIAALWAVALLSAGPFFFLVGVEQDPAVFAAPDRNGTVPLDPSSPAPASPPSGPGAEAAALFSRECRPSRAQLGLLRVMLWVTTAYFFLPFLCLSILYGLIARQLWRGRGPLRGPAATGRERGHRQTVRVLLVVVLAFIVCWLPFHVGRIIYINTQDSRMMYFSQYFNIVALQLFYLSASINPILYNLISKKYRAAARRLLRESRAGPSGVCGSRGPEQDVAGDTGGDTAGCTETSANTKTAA
In short: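 Radioligand binding of 25 pM 125I-motilin to rabbit duodenal mucosa homogenate in 50 mM Tris. Specific binding was defined by excess unlabelled motilin (10^−7 M). IC50 (nM) is the concentration cutting specific binding by 50%.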

[1] = tested on: specimen of longitudinal muscle in the duodenum extracted from a rabbit (motilin-induced contraction); test: Action on the motilin-induced contraction of a specimen of longitudinal muscle in the duodenum extracted from a rabbit; settings: Oryctolagus cuniculus, organ bath, Krebs solution 28° C., read-out: Contraction suppressing test, pA2 (converted)
In short: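 Rabbit duodenal longitudinal strip in Krebs solution at 28° C, gassed 95% O2/5% CO2, contraction recorded isotonically under 1-g load. Contraction expressed relative to 10^−4 M acetylcholine as 100%. Activity given as pA2 against dose-dependent motilin-induced contraction.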

Row | Structure (SMILES) | IC50 (motilin receptor) | Kb [1]
1 | CN(C(=O)[C@@H](N)Cc1ccc(F)cc1)[C@H](C(=O)N(C)[C@@H](Cc1ccc(O)c(C(C)(C)C)c1)C(N)=O)C1CCCCC1 [Example 151, Phe(4-F)-N-Me-Chg-N-Me-Tyr(3-tBu)-NH2] (H-[Phe(4-F)]-[NMeChg]-[NMeTyr(3-tBu)]-NH2) | 0.36 nM | 6.31 nM
2 | CN(C(=O)[C@@H](N)Cc1ccc(F)cc1)[C@@H](Cc1ccccc1)C(=O)N(C)[C@@H](Cc1ccc(O)c(C(C)(C)C)c1)C(N)=O [Example 155, Phe(4-F)-N-Me-Phe-N-Me-Tyr(3-tBu)-NH2] (H-[Phe(4-F)]-[NMeF]-[NMeTyr(3-tBu)]-NH2) | 2.5 nM | 7.94 nM
3 | CN(C(=O)[C@@H](N)Cc1ccc(F)cc1)[C@@H](Cc1ccc(F)cc1)C(=O)N(C)[C@@H](Cc1ccc(O)c(C(C)(C)C)c1)C(N)=O [Example 157, Phe(4-F)-N-Me-Phe(4-F)-N-Me-Tyr(3-tBu)-NH2] (H-[Phe(4-F)]-[NMePhe(4-F)]-[NMeTyr(3-tBu)]-NH2) | 6.1 nM | 7.94 nM
4 | CN(C(=O)[C@@H](N)Cc1ccc(F)cc1)[C@@H](Cc1cccs1)C(=O)N(C)[C@@H](Cc1ccc(O)c(C(C)(C)C)c1)C(N)=O [Example 163, Phe(4-F)-N-Me-Ala(β-2-thienyl)-N-Me-Tyr(3-tBu)-NH2] (H-[Phe(4-F)]-[NMe2Thi]-[NMeTyr(3-tBu)]-NH2) | 2.4 nM | 15.8 nM
5 | CN(C(=O)[C@@H](N)Cc1ccc(F)cc1)[C@H](C(=O)N(C)[C@@H](Cc1ccc(O)c(C(C)(C)C)c1)C(N)=O)C1CC1 [Example 165, Phe(4-F)-N-Me-Ala(β-c-Pr)-N-Me-Tyr(3-tBu)-NH2] (H-[Phe(4-F)]-[NMeGly(cPr)]-[NMeTyr(3-tBu)]-NH2) | 2.8 nM | 6.31 nM
6 | CN(C(=O)[C@@H](N)Cc1ccc(F)cc1)[C@H](C(=O)N(C)[C@@H](Cc1ccc(O)c(C(C)(C)C)c1)C(N)=O)c1ccccc1 [Example 166, Phe(4-F)-N-Me-Phg-N-Me-Tyr(3-tBu)-NH2] (H-[Phe(4-F)]-[NMePhg]-[NMeTyr(3-tBu)]-NH2) | 1.8 nM | 0.158 nM
7 | CC(C)[C@@H](C(=O)N(C)C(Cc1ccc(O)c(C(C)(C)C)c1)C(N)=O)N(C)C(=O)C(N)Cc1ccc(C#N)cc1 (stereo partly shown) [Example 182, Phe(4-CN)-N-Me-Val-N-Me-Tyr(3-tBu)-NH2] (H-[ξPhe(4-CN)]-[NMeV]-[ξNMeTyr(3-tBu)]-NH2) | 2.3 nM | 3.16 nM
8 | CC(C)[C@@H](C(=O)N(C)C(Cc1ccc(O)c(C(C)(C)C)c1)C(N)=O)N(C)C(=O)C(N)Cc1c[nH]c2ccccc12 (stereo partly shown) [Example 183, Trp-N-Me-Val-N-Me-Tyr(3-tBu)-NH2] (H-[ξW]-[NMeV]-[ξNMeTyr(3-tBu)]-NH2) | 0.57 nM | 0.316 nM
